Assay results: article PMC10650108 (Molecules, 2023)
“Also recorded” adds a separate entry of the source. Ends that are not written are not given here.

Key:
[1] = In vitro metabolic incubation with human liver microsomes, UHPLC-HRMS metabolite profiling; format: in vitro ADME; details: 37 °C, 2 h
Method: (§1) Mixed-gender human liver microsomes (10-Donor Pool, total protein concentration of 20 mg/mL) and mixed-gender human skin S9 (3-Donor Pool, total protein concentration of 1.89 mg/mL) were purchased from BioreclamationIVT (Westbury, NY, USA). Phosphate buffered saline (PBS, pH 7.2~7.4) was obtained from Sangon Biotech Co., Ltd. (Shanghai, China). BPC-157 (HPLC purity > 99%) and (Deamino-cysl, val4, D-arg8)-Vasopressin (DCVDV, internal standard, ISTD) were purchased from Alta Scientific Co., Ltd. (Tianjin, China). ^13C6,^15N2-BPC-157 (labeled BPC-157, HPLC purity > 98%) was purchased from Synpeptide Co., Ltd. (Nanjing, China). BPC-157 (2–15) free acid, BPC-157 (1–13) free acid, BPC-157 (2–13) free acid, BPC-157 (1–12) free acid, BPC-157 (3–15) free acid, BPC-157 (1–8) free acid, and BPC-157 (2–8) free acid were synthesized by Alta Scientific Co., Ltd. (Tianjin, China). MgCl2 was from Beyotime Biotechnology (Shanghai, China). Nicotinamide adenine dinucleotide phosphate (NADPH) was purchased from Vetec (Shanghai, China). Acetonitrile (ACN), methanol (MeOH), and formic acid (FA) were of LC-MS grade and were obtained from Thermo Fisher Scientific (San Jose, CA, USA). Milli-Q purified water (MerckMillipore, Vimodrone, Milan, Italy) was used for sample preparation, reference material dilution, and LC mobile phase preparation. […]

[2] = In vitro metabolic incubation with human skin S9, UHPLC-HRMS metabolite profiling; format: in vitro ADME; details: human skin S9 0.189 mg/mL, 37 °C, 2 h
Method: as §1

[3] = mixed-gender human skin S9 (3-Donor Pool) in PBS; details: 37 °C, up to 2 h
[4] = in vitro plasma metabolism; details: cited from earlier work
[5] = mixed-gender human liver microsomes (10-Donor Pool) in PBS with MgCl2 and NADPH; details: 37 °C, up to 2 h

EPPPGKPADDAG [BPC-157 (2–13) free acid (M3), BPC-157 (2–13) free acid]
Detection of metabolite in the human liver microsome incubation system (in words) ([1]; human liver microsomes 1 mg/mL, NADPH, UHPLC-HRMS): only detected in the human liver microsome incubation system

EPPPGKPADDAGL [BPC-157 (2–14) free acid (M5), BPC-157 (2–14) free acid]
Detection of metabolite in the human skin S9 incubation system (in words) [2]: only detected in the human skin S9 incubation system

EPPPGKPADDAGLV [BPC-157 (2–15) free acid (M8), BPC-157 (2–15) free acid]
Relative response of metabolites (relative abundance) ([1]; both incubation systems (human liver microsomes and human skin S9), relative to the most abundant metabolite M8): most abundant metabolite in both incubation systems

GEPPPGKPADDAGLV [BPC-157]
cleaved bond [3]: glycine1-E2, major | fragment found [3]: BPC-157 (1–14) free acid (M6), GEPPPGKPADDAGL; also recorded: BPC-157 (2–8) free acid (M1), EPPPGKP, major; also recorded: BPC-157 (1–8) free acid (M2), GEPPPGKP, major; also recorded: BPC-157 (1–13) free acid (M4), GEPPPGKPADDAG, major | fragment found [4]: BPC-157 (2–15) free acid (M8), major; also recorded: BPC-157 (2–13) free acid | cleaved bond [5]: glycine1-E2, major | fragment found [5]: BPC-157 (1–14) free acid (M6), GEPPPGKPADDAGL; also recorded: BPC-157 (2–8) free acid (M1), EPPPGKP, major; also recorded: BPC-157 (1–8) free acid (M2), GEPPPGKP, major; also recorded: BPC-157 (1–13) free acid (M4), GEPPPGKPADDAG, major

GEPPPGKPADDAGLV [labeled BPC-157]
fragment found [5]: labeled M9

GKPADDAGLV [BPC-157 (6–15) free acid (M7), BPC-157 (6–15) free acid]
Detection of metabolite in the human skin S9 incubation system (in words) [2]: only detected in the human skin S9 incubation system
